Data from PubChem BioAssay (NCI).
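Step 1: Grow cells in 96-well plates. Step 2: Expose to compound for 48 hours at 5 concentrations. Step 3: Interpolate endpoints linearly; if unreached, use highest concentration. TGI denotes the concentration required for complete inhibition of growth.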

Legend:
Test in all cases: NCI-60 cell line screen, 48 h
SF-268 CNS = test system: SF-268 CNS
SF-295 CNS = test system: SF-295 CNS
NCI-H226 lung = test system: NCI-H226 lung
MDA-MB-435 = test system: MDA-MB-435
DU-145 prostate = test system: DU-145 prostate
CCRF-CEM leukemia = test system: CCRF-CEM leukemia
LOX IMVI melanoma = test system: LOX IMVI melanoma
U251 CNS = test system: U251 CNS
HS 578T breast = test system: HS 578T breast
NCI-H460 lung = test system: NCI-H460 lung
A498 renal = test system: A498 renal
MOLT-4 leukemia = test system: MOLT-4 leukemia
COLO 205 colon = test system: COLO 205 colon
HL-60(TB) leukemia = test system: HL-60(TB) leukemia
HT29 colon = test system: HT29 colon
KM12 colon = test system: KM12 colon
SK-MEL-28 melanoma = test system: SK-MEL-28 melanoma
MDA-MB-231 breast = test system: MDA-MB-231 breast
UO-31 renal = test system: UO-31 renal
NCI/ADR-RES ovarian = test system: NCI/ADR-RES ovarian
SR leukemia = test system: SR leukemia
SK-MEL-5 melanoma = test system: SK-MEL-5 melanoma
OVCAR-8 ovarian = test system: OVCAR-8 ovarian
MCF7 breast = test system: MCF7 breast
TK-10 renal = test system: TK-10 renal
HOP-62 NSCLC = test system: HOP-62 NSCLC
RXF 393 renal = test system: RXF 393 renal
UACC-62 melanoma = test system: UACC-62 melanoma
BT-549 breast = test system: BT-549 breast
K-562 leukemia = test system: K-562 leukemia
HCT-116 colon = test system: HCT-116 colon
OVCAR-3 ovarian = test system: OVCAR-3 ovarian
OVCAR-4 ovarian = test system: OVCAR-4 ovarian
ACHN renal = test system: ACHN renal
SK-MEL-2 melanoma = test system: SK-MEL-2 melanoma
NCI-H522 lung = test system: NCI-H522 lung
EKVX NSCLC = test system: EKVX NSCLC
SN12C renal = test system: SN12C renal
786-0 renal = test system: 786-0 renal
SK-OV-3 ovarian = test system: SK-OV-3 ovarian
SW-620 colon = test system: SW-620 colon
NCI-H23 lung = test system: NCI-H23 lung
OVCAR-5 ovarian = test system: OVCAR-5 ovarian
CAKI-1 renal = test system: CAKI-1 renal
HOP-92 NSCLC = test system: HOP-92 NSCLC
RPMI-8226 leukemia = test system: RPMI-8226 leukemia
SNB-19 CNS = test system: SNB-19 CNS
HCC-2998 colon = test system: HCC-2998 colon
UACC-257 melanoma = test system: UACC-257 melanoma
M14 melanoma = test system: M14 melanoma
T-47D breast = test system: T-47D breast
MDA-N = test system: MDA-N
HCT-15 colon = test system: HCT-15 colon
MALME-3M melanoma = test system: MALME-3M melanoma
SF-539 CNS = test system: SF-539 CNS
A549 NSCLC = test system: A549 NSCLC
SNB-75 CNS = test system: SNB-75 CNS
IGROV1 ovarian = test system: IGROV1 ovarian

`CC(C)(C)OC(=O)Nc1nnc(S(N)(=O)=O)s1` was tested, and the TGI (SF-268 CNS) was greater than 100 µM, the TGI (SF-295 CNS) was greater than 100 µM and the TGI (NCI-H226 lung) was greater than 100 µM. For the same compound, the TGI (MDA-MB-435) was greater than 100 µM, the TGI (DU-145 prostate) was greater than 100 µM and the TGI (CCRF-CEM leukemia) was greater than 100 µM. It also gave a TGI (LOX IMVI melanoma) greater than 100 µM, a TGI (U251 CNS) greater than 100 µM and a TGI (HS 578T breast) greater than 100 µM. The TGI (NCI-H460 lung) was greater than 100 µM, the TGI (A498 renal) was greater than 100 µM and the TGI (MOLT-4 leukemia) was greater than 100 µM. The TGI (COLO 205 colon) was greater than 100 µM, the TGI (HL-60(TB) leukemia) was greater than 100 µM and the TGI (HT29 colon) was greater than 100 µM. For the same compound, the TGI (KM12 colon) was greater than 100 µM, the TGI (SK-MEL-28 melanoma) was greater than 100 µM and the TGI (MDA-MB-231 breast) was greater than 100 µM. It also gave a TGI (UO-31 renal) greater than 100 µM, a TGI (NCI/ADR-RES ovarian) greater than 100 µM and a TGI (SR leukemia) greater than 100 µM. For the same compound, the TGI (SK-MEL-5 melanoma) was greater than 100 µM, the TGI (OVCAR-8 ovarian) was greater than 100 µM and the TGI (MCF7 breast) was greater than 100 µM. The TGI (TK-10 renal) was greater than 100 µM, the TGI (HOP-62 NSCLC) was greater than 100 µM and the TGI (RXF 393 renal) was greater than 100 µM. For the same compound, the TGI (UACC-62 melanoma) was greater than 100 µM, the TGI (BT-549 breast) was greater than 100 µM and the TGI (K-562 leukemia) was greater than 100 µM. The TGI (HCT-116 colon) was greater than 100 µM, the TGI (OVCAR-3 ovarian) was greater than 100 µM and the TGI (OVCAR-4 ovarian) was greater than 100 µM. It also gave a TGI (ACHN renal) greater than 100 µM, a TGI (SK-MEL-2 melanoma) greater than 100 µM and a TGI (NCI-H522 lung) greater than 100 µM. It also gave a TGI (EKVX NSCLC) greater than 100 µM, a TGI (SN12C renal) greater than 100 µM and a TGI (786-0 renal) greater than 100 µM. It also gave a TGI (SK-OV-3 ovarian) greater than 100 µM, a TGI (SW-620 colon) greater than 100 µM and a TGI (NCI-H23 lung) greater than 100 µM. It also gave a TGI (OVCAR-5 ovarian) greater than 100 µM, a TGI (CAKI-1 renal) greater than 100 µM and a TGI (HOP-92 NSCLC) greater than 100 µM. It also gave a TGI (RPMI-8226 leukemia) greater than 100 µM, a TGI (SNB-19 CNS) greater than 100 µM and a TGI (HCC-2998 colon) greater than 100 µM. It also gave a TGI (UACC-257 melanoma) greater than 100 µM, a TGI (M14 melanoma) greater than 100 µM and a TGI (T-47D breast) greater than 100 µM. It also gave a TGI (MDA-N) greater than 100 µM, a TGI (HCT-15 colon) greater than 100 µM and a TGI (MALME-3M melanoma) greater than 100 µM. For the same compound, the TGI (SF-539 CNS) was greater than 100 µM and the TGI (A549 NSCLC) was greater than 100 µM.

`Cc1nn2c(C(=O)N/N=C/c3ccccc3O)c(C)nc2s1` gave a TGI (SF-268 CNS) greater than 100 µM, a TGI (SF-295 CNS) greater than 100 µM and a TGI (NCI-H226 lung) greater than 100 µM. It also gave a TGI (MDA-MB-435) greater than 100 µM, a TGI (DU-145 prostate) greater than 100 µM and a TGI (CCRF-CEM leukemia) greater than 100 µM. For the same compound, the TGI (LOX IMVI melanoma) was greater than 100 µM, the TGI (U251 CNS) was greater than 100 µM and the TGI (HS 578T breast) was greater than 100 µM. It also gave a TGI (NCI-H460 lung) greater than 100 µM, a TGI (A498 renal) greater than 100 µM and a TGI (MOLT-4 leukemia) greater than 100 µM. For the same compound, the TGI (COLO 205 colon) was greater than 100 µM, the TGI (HL-60(TB) leukemia) was greater than 100 µM and the TGI (SNB-75 CNS) was greater than 100 µM. For the same compound, the TGI (HT29 colon) was greater than 100 µM, the TGI (KM12 colon) was greater than 100 µM and the TGI (SK-MEL-28 melanoma) was greater than 100 µM. It also gave a TGI (MDA-MB-231 breast) greater than 100 µM, a TGI (UO-31 renal) greater than 100 µM and a TGI (NCI/ADR-RES ovarian) greater than 100 µM. The TGI (SK-MEL-5 melanoma) was greater than 100 µM, the TGI (OVCAR-8 ovarian) was greater than 100 µM and the TGI (MCF7 breast) was greater than 100 µM. For the same compound, the TGI (IGROV1 ovarian) was greater than 100 µM, the TGI (TK-10 renal) was greater than 100 µM and the TGI (HOP-62 NSCLC) was greater than 100 µM. For the same compound, the TGI (RXF 393 renal) was greater than 100 µM, the TGI (UACC-62 melanoma) was greater than 100 µM and the TGI (BT-549 breast) was greater than 100 µM. The TGI (K-562 leukemia) was greater than 100 µM, the TGI (HCT-116 colon) was greater than 100 µM and the TGI (OVCAR-3 ovarian) was 90.6 µM. It also gave a TGI (OVCAR-4 ovarian) greater than 100 µM, a TGI (ACHN renal) greater than 100 µM and a TGI (NCI-H522 lung) greater than 100 µM. It also gave a TGI (EKVX NSCLC) greater than 100 µM, a TGI (SN12C renal) greater than 100 µM and a TGI (786-0 renal) greater than 100 µM. It also gave a TGI (SW-620 colon) greater than 100 µM, a TGI (NCI-H23 lung) greater than 100 µM and a TGI (OVCAR-5 ovarian) greater than 100 µM. It also gave a TGI (CAKI-1 renal) greater than 100 µM, a TGI (HOP-92 NSCLC) greater than 100 µM and a TGI (SNB-19 CNS) greater than 100 µM. It also gave a TGI (HCC-2998 colon) greater than 100 µM, a TGI (UACC-257 melanoma) greater than 100 µM and a TGI (M14 melanoma) greater than 100 µM. It also gave a TGI (T-47D breast) greater than 100 µM, a TGI (MDA-N) greater than 100 µM and a TGI (HCT-15 colon) greater than 100 µM. For the same compound, the TGI (MALME-3M melanoma) was greater than 100 µM, the TGI (SF-539 CNS) was greater than 100 µM and the TGI (A549 NSCLC) was greater than 100 µM.
